Legend:
Type in all cases: cell-based
[1] = molecular target: T1, hOCT3 (organic cation transporter 3) (Homo sapiens, UniProt O75751); assay: radioligand saturation binding/uptake in intact HEK293-hOCT3 cells, empty-vector cells as non-specific binding
T1 construct: gene SLC22A3
T1 sequence (O75751 1-556): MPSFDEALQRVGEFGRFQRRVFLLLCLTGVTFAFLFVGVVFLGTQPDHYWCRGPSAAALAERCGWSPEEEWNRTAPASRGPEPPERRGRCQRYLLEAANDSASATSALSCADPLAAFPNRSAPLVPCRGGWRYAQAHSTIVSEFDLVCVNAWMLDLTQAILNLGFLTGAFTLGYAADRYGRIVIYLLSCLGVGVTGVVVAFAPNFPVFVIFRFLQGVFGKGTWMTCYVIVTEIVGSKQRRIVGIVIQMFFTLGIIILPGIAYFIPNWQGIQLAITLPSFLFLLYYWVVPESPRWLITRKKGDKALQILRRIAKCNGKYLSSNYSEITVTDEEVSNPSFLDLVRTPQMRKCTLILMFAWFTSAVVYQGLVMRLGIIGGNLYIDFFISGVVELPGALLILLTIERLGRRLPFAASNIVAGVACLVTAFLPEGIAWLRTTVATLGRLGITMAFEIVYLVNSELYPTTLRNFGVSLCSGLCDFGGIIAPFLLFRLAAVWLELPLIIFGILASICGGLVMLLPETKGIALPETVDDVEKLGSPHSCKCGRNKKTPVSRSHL

[2] = molecular target: T1, hOCT3 (organic cation transporter 3); assay: inhibition of […]FEtQ uptake in HEK293 cells stably expressing hOCT3
[3] = molecular target: T2, hOCT2 (organic cation transporter 2) (Homo sapiens, UniProt O15244); assay: in vivo PET/CT blocking of […]FEtQ uptake in HEK-hOCT2 xenografts in mice
T2 construct: gene SLC22A2
T2 sequence (O15244 1-555): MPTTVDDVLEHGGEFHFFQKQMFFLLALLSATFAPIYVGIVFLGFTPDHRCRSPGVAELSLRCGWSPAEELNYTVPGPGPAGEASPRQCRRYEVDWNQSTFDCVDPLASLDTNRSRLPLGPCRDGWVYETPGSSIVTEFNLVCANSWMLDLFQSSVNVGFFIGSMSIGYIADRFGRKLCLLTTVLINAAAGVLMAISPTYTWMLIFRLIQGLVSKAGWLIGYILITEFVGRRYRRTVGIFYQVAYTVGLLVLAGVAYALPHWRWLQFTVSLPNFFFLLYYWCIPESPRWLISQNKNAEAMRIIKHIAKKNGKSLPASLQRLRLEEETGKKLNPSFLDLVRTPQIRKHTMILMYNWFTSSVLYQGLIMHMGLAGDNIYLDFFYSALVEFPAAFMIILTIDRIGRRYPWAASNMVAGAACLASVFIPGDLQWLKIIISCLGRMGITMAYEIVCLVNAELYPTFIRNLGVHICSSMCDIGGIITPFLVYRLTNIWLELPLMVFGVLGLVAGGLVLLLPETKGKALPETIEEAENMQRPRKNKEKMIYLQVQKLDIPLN

FCC[n+]1cccc2ccccc21 [[18F]FEtQ]
Kd [1]: 214 ± 114 µM

C[C@]12C[C@H](O)[C@H]3[C@@H](CCC4=CC(=O)CC[C@@]43C)[C@@H]1CC[C@@H]2C(=O)CO [corticosterone]
IC50 [2]: 0.05 to 0.5 µM

CCN1/C(=C/c2ccc3ccccc3[n+]2CC)C=Cc2ccccc21 [decynium 22]
% lower peak tumor uptake at 0.075 mg/kg [3]: 40 % lower peak tumor uptake at 0.075 mg/kg

Source: paper PMC9581852, “Organic Cation Transporter-Mediated Accumulation of Quinolinium Salts in the LV Myocardium of Rodents” (Molecular Imaging and Biology, 2022)
